# In PMC11078746 (Nature, 2024):
# Read-outs that look alike come from different tables or passages of the source.
# Legend:
# [1] = CL in vivo, intravenous bolus; details: whole blood
# Protocol: PK parameters were determined by non-compartmental analysis. Intravenous bolus studies in mouse, rat and dog were performed at 1, 1 and 0.1 mg per kg respectively (Extended Data Table 1).
# CW2 = assay: 4 day proliferation assay (CellTiter-Glo); details: Homo sapiens, CW-2, 96 h, read-out: 4 day assay GI50
# HEC251 = assay: CFA 10-14 day clonogenic assay; assay type: cell-based; details: Homo sapiens, HEC-251
# HEC59 = assay: CFA 10-14 day clonogenic assay; assay type: cell-based; details: Homo sapiens
# HEC265 = assay: 4 day proliferation assay (CellTiter-Glo); details: Homo sapiens, 96 h, read-out: 4 day assay GI50
# SNUC2A = assay: 4 day proliferation assay (CellTiter-Glo)
# LS180 = assay: 4 day proliferation assay (CellTiter-Glo); details: Homo sapiens, LS180, 96 h, read-out: 4 day assay GI50
# MDCK LE permeability = assay type: in vitro ADME, canine; details: dog
# IGROV1 = assay: CFA 10-14 day clonogenic assay; assay type: cell-based; details: Homo sapiens, IGROV-1
# SNGM = assay: CFA 10-14 day clonogenic assay; assay type: cell-based; details: Homo sapiens
# TOV21G = assay: 4 day proliferation assay (CellTiter-Glo); details: Homo sapiens, 96 h, read-out: 4 day assay GI50
# hERG = hERG (Homo sapiens, UniProt Q12809); assay: hERG binding (patch clamp)
# SW48 = assay: 4 day proliferation assay (CellTiter-Glo); details: for GI50: Homo sapiens, SW48, 96 h
# NUGC3 = assay: 4 day proliferation assay (CellTiter-Glo); details: Homo sapiens, NUGC-3, 96 h, read-out: 4 day assay GI50
# CL34 = assay: 4 day proliferation assay (CellTiter-Glo); details: Homo sapiens, 96 h, read-out: 4 day assay GI50
# LS513 = assay: CFA 10-14 day clonogenic assay; assay type: cell-based; details: Homo sapiens, LS-513
# SNU520 = assay: 4 day proliferation assay (CellTiter-Glo); details: Homo sapiens, 96 h, read-out: 4 day assay GI50
# LOVO = assay: 4 day proliferation assay (CellTiter-Glo); details: Homo sapiens, 96 h, read-out: 4 day assay GI50
# SNUC5 = assay: CFA 10-14 day clonogenic assay; assay type: cell-based; details: Homo sapiens
# RL952 = assay: 4 day proliferation assay (CellTiter-Glo); details: Homo sapiens, RL95-2, 96 h, read-out: 4 day assay GI50
# [2] = tested on: WRN protein in MSI and MSS cells; assay: WRN degradation (immunoblot, ELISA); assay type: cell-based, human
# Protocol: A list of all of the antibodies is provided in Supplementary Table 2. […] The plates were washed in PBS and 200 µl per well of blocking reagent added (PBS, 0.05% Tween-20, 5% skimmed milk), and the plates were incubated for a minimum of 2 h at room temperature. […] The plates were then washed and 50 µl of secondary antibody per well diluted in blocking buffer was added and the plates were incubated overnight at 4 °C. The next day, 50 µl of tertiary antibody was added per well buffer and the plates were incubated for 2 h at room temperature. […] The plates were shaken and luminescence was detected immediately on the Synergy HT microplate reader.
# Sequence of hERG (Q12809 whole entry): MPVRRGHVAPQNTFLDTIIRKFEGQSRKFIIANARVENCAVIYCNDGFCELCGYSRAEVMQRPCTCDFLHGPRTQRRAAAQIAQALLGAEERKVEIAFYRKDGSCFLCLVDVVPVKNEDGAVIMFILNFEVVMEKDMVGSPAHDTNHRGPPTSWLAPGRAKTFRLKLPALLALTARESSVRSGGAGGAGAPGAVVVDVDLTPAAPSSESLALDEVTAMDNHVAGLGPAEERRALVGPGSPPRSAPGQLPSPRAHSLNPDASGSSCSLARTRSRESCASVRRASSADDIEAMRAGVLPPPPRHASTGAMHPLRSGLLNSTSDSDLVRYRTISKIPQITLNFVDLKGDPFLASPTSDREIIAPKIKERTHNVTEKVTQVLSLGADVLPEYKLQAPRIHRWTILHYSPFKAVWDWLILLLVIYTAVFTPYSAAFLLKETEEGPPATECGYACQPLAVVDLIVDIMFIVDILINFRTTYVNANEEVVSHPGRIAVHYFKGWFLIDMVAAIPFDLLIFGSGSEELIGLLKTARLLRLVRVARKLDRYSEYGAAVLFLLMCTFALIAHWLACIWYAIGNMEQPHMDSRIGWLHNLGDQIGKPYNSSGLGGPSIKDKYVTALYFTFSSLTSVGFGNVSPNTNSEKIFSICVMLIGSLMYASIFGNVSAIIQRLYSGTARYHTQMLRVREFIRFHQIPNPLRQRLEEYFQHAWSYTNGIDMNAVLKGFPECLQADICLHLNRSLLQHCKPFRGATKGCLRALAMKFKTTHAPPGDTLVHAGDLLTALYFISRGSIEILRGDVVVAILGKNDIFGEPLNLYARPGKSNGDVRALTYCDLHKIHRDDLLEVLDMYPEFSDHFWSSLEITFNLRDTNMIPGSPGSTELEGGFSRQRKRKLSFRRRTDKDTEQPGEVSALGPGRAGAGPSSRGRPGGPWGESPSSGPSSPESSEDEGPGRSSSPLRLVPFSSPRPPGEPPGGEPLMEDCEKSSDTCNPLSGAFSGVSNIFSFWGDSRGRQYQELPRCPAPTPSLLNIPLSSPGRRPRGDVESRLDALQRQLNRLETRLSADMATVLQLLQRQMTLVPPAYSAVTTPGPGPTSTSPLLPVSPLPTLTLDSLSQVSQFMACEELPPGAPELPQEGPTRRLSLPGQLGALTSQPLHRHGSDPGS
structure (smiles),measurement,setting,value
CCc1c(N2CCN(C(=O)c3ncnc(C)c3O)CC2)c(=O)n2nc(C3=CCOCC3)nc2n1CC(=O)Nc1ccc(C(F)(F)F)cc1Cl [HRO761],clearance,"[1]; 0.1 mg/kg, dog, intravenous bolus 0.1 mg per kg",4.3 mL/min/kg
same,clearance,"[1]; 1 mg/kg, mouse, intravenous bolus 1 mg per kg",29 mL/min/kg
same,clearance,"[1]; 1 mg/kg, rat, intravenous bolus 1 mg per kg",5.3 mL/min/kg
same,GI50,CW2,112 nM
same,GI50,HEC251,≥ 10000 nM
same,GI50,HEC59,133 nM
same,GI50,HEC265,≥ 10000 nM
same,GI50,"SNUC2A; Homo sapiens, 96 h, read-out: 4 day assay GI50, SNUC2A",641 nM
same,GI50,"SNUC2A; read-out: 4 day assay GI50, SNUC2A",542 nM
same,GI50,LS180,3500 nM
same,Papp A→B,MDCK LE permeability; A-B,30 ×10⁻⁶ cm/s
same,Papp,MDCK LE permeability; Fig. 1b,31 ×10⁻⁶ cm/s
same,GI50,IGROV1,473 nM
same,GI50,SNGM,7290 nM
same,GI50,TOV21G,≥ 10000 nM
same,IC50,hERG,> 30000 nM
same,GI50,SW48; HRO761 alone,100 nM
same,GI50,SW48; HRO761 dose response with 3.2 µM ATMi KU-55933,200 nM
same,GI50,"SW48; read-out: 4 day assay GI50, SW48",58 nM
same,unbound GI90,SW48; SW48,160 nM
same,GI50,NUGC3,≥ 10000 nM
same,GI50,CL34,231 nM
same,GI50,LS513,≥ 10000 nM
same,GI50,SNU520,≥ 10000 nM
same,GI50,LOVO,1240 nM
same,GI50,SNUC5,418 nM
same,GI50,RL952,144 nM
same,"WRN degradation, dependence on MSI/MSS status",[2],only in MSI cells
